Measured values published in EP1285971B1, “Methods for the phenotypic and genotypic assessment of the drug sensitivity of HIV integrase variants” (Tibotec Pharmaceuticals Ltd., priority 2001, dated 2003).
Like-named read-outs stand apart in the source and are kept apart here.

Assays:
Assay in all cases: microbe, parasite or virus in culture
Details in all cases: for fold change: fold change in EC50
[1] = test system: NL 4-3; assay type: cell-based, HIV-1
Description: (§1) The integrase encoding sequence was amplified from either wildtype HIV-1 (IIIB) or NL4.3 virus, or HXB2D site-directed mutant viruses containing mutations in integrase (such as T66I, S153Y, M154I, or combinations thereof) (Hazuda et al., Science 2000, 287, 646-650), or patient samples. Starting from RNA, extracted from virus supernatant or plasma using the QIAamp® viral RNA extraction kit (Qiagen), cDNA was synthesized by reverse transcription (Expand TM reverse transcriptase, 30 min at 42°C) with the primer 3'EGINT10 (SEQ ID NO 11), followed by a nested PCR. The outer PCR was performed with the primers 5'EGINT1 (SEQ ID NO 1) and 3'EGINT10 (SEQ ID NO 11) (ΔR-IN-vif construct) or 5'EGINT3 (SEQ ID NO 4) and 3'EGINT10 (SEQ ID NO 11) (ΔIN construct) (Expand™ High Fidelity PCR system), and 5 µl of the outer product was used for an inner PCR with primers 5'EGINT2 (SEQ ID NO 3) and 3'EGINT11 (SEQ ID NO 12) (ΔR-IN-vif construct) or 5'EGINT4 (SEQ ID NO 5) and 3'EGINT6 (SEQ ID NO 7) (ΔIN construct). In a second protocol the outer primers were identical as described above, the inner primers are 5'EGINT5 (SEQ ID NO 6) and 3'EGINT6 (SEQ ID NO 7). The amplicons can be used for genotyping and phenotyping. Cycling conditions for both PCRs are denaturation for 3 min at 95°C, followed by 30 cycles of 1 min 90°C, 30 sec 55°C, and 2 min 72°C. A final extension was performed at 72°C for 10 min. For recombination, PCR products are purified using the QiaQuick® 96 PCR BioRobot kit (Qiagen), according to the manufacturer's protocol. If the protocol starts from DNA containing the HIV material such as proviral DNA, the reverse transcriptase step is not needed. The nested approach is also not needed when starting from proviral DNA. The obtained amplicons were sequenced using the primers: In_seq1F (SEQ ID NO 17), In_seq2F (SEQ ID NO 18), In_seq3F (SEQ ID NO 19), IN_seq1R (SEQ ID NO 20), IN_seq2R (SEQ ID NO 21), and IN_seq3R (SEQ ID NO 22).
(§2) A ΔR-IN-vif or ΔIN deletion construct was generated by site-directed mutagenesis on the template pSV40HXB2D with the primers MUT-IN1 (SEQ ID NO 13) and MUT-IN2 (ΔR-IN-vif construct) (SEQ ID NO 14) or MUT-IN3 (SEQ ID NO 15) and MUT-IN4 (SEQ ID NO 16) (ΔIN construct) (protocol Site-directed mutagenesis kit, Stratagene). After DpnI digestion for removal of the methylated template DNA, the construct was digested with SmaI and ligated to circulize the plasmid. The plasmid was transformed into competent cells such as Top10 cells, and colonies were screened for the presence of the deletion construct. The IN-deletion construct was checked by sequence analysis with primers 5'EGINT1 (SEQ ID NO 1) or […] and 3'EGINT10 (SEQ ID NO 11) or 3'EGINT11 (SEQ ID NO 12). For use in recombination experiments, large-scale plasmid DNA preparations were linearized by SmaI digestion and recombined with PCR amplified integrase genes from wild type, mutant, or patient viruses. The plasmid containing the integrase deletion (ΔIN) has been deposited pSV40HXB2D-ΔIN. The sequence of said plasmid is 14377 nucleotides long. The ΔR-IN-vif deletion construct is 13975 nucleotides long. The pSV40HXB2D-ΔIN was deposited at the Belgian Coordinated Collections of Micro-Organisms located at the Universiteit Gent - Laboratorium voor Moleculaire Biologie on August 5, 2002 and the accession number is LMBP 4574.
(§3) Recombinant virus was produced by co-transfection by electroporation of the SmaI-linearized IN-deletion construct and the integrase amplicon into MT4 cells or MT4 cells equipped with an LTR driven reporter gene construct. Production of recombinant virus was evaluated by scoring the cytopathogenic effect (CPE) that is induced by HIV-infection of MT4 cells or by the LTR-driven reporter signal induced by HIV infection in MT4 reporter cells.

[2] = test system: WT III B; assay type: cell-based, HIV-1
Description: as §1, §2, §3

[3] = test system: patient_146514; assay type: cell-based, HIV
Description: as §1, §2, §3

[4] = Human immunodeficiency virus 1, AVE 1, NL 4-3, primer set 3
[5] = Human immunodeficiency virus 1, NL43, AVE 4, NL4-3, primer set 4
[6] = Human immunodeficiency virus 1, AVE 3, WT III B, primer set 3
[7] = Human immunodeficiency virus 1, AVE 5, WT III B, primer set 4
[8] = AVE 2, patient_146514, primer set 3
[9] = Human immunodeficiency virus 1, AVE 2, patient_146514, primer set 3

SMILES: c1cc(CN2CCCNCCNCCCNCC2)ccc1CN1CCCNCCNCCCNCC1 [AMD3100]
- fold change ([1]; AVE 1, NL 4-3, primer set 3): 0,9
- fold change ([1]; AVE 4, NL4-3, primer set 4): 1,1
- EC50 [1, 4]: 50.6 nM
- EC50 [1, 5]: 63 nM
- fold change ([2]; AVE 3, WT III B, primer set 3): 0,8
- fold change ([2]; AVE 5, WT III B, primer set 4): 0,8
- EC50 [2, 6]: 44.2 nM
- EC50 [2, 7]: 41.7 nM
- fold change [3, 8]: 1,0
- EC50 [3, 9]: 54.9 nM

SMILES: CC(C)CN(C[C@@H](O)[C@H](Cc1ccccc1)NC(=O)O[C@H]1CCOC1)S(=O)(=O)c1ccc(N)cc1 [APV, Amprenavir]
- fold change ([1]; AVE 1, NL 4-3, primer set 3): 0,6
- fold change ([1]; AVE 4, NL4-3, primer set 4): 1,3
- EC50 [1, 4]: 49.6 nM
- EC50 [1, 5]: 113 nM
- fold change ([2]; AVE 3, WT III B, primer set 3): 0,5
- fold change ([2]; AVE 5, WT III B, primer set 4): 0,7
- EC50 [2, 6]: 46 nM
- EC50 [2, 7]: 60.6 nM
- fold change [3, 8]: 1,4
- EC50 [3, 9]: 117 nM

SMILES: O=C(O)C1=CC(=C(c2ccc(O)c(C(=O)O)c2)c2ccc(O)c(C(=O)O)c2)C=CC1=O [ATA]
- fold change ([1]; AVE 1, NL 4-3, primer set 3): 0,9
- EC50 ([1]; AVE 1, NL 4-3, primer set 3, read-out: EC 50): 1960 nM
- fold change ([1]; AVE 4, NL4-3, primer set 4): 1,2
- EC50 ([1]; AVE 4, NL4-3, primer set 4, read-out: EC 50): 2510 nM
- fold change ([2]; AVE 3, WT III B, primer set 3): 0,4
- EC50 ([2]; AVE 3, WT III B, primer set 3, read-out: EC 50): 730 nM
- fold change ([2]; AVE 5, WT III B, primer set 4): 0,4
- EC50 ([2]; AVE 5, WT III B, primer set 4, read-out: EC 50): 861 nM
- fold change [3, 8]: 1,0
- EC50 ([3]; AVE 2, patient_146514, primer set 3, read-out: EC 50): 1970 nM

SMILES: Cc1cn([C@H]2C[C@H](N=[N+]=[N-])[C@@H](CO)O2)c(=O)[nH]c1=O [AZT, Zidovudine]
- fold change ([1]; AVE 1, NL 4-3, primer set 3): 0,9
- fold change ([1]; AVE 4, NL4-3, primer set 4): 1,1
- EC50 [1, 4]: 143 nM
- EC50 [1, 5]: 182 nM
- fold change ([2]; AVE 5, WT III B, primer set 4): 0,9
- EC50 [2, 7]: 144 nM
- fold change [3, 8]: 0,9
- EC50 [3, 9]: 150 nM

SMILES: Cc1cc(C#N)cc(C)c1Oc1nc(Nc2ccc(C#N)cc2)nc(N)c1Br [Compound 1, 4-[[6-amino-5-bromo-2-[(4-cyanophenyl)amino]-4-pyrimidinyl]oxy]-3,5-dimethyl-benzonitrile]
- EC50 ([1]; AVE 1, NL 4-3, primer set 3): 1 nM
- fold change ([1]; AVE 1, NL 4-3, primer set 3): 1,0
- fold change ([1]; AVE 4, NL4-3, primer set 4): 2,3
- EC50 [1, 5]: 2.3 nM
- EC50 ([2]; AVE 3, WT III B, primer set 3): 0.9 nM
- fold change ([2]; AVE 3, WT III B, primer set 3): 0,9
- EC50 ([2]; AVE 5, WT III B, primer set 4): 1.2 nM
- fold change ([2]; AVE 5, WT III B, primer set 4): 1,2
- EC50 [3, 8]: 1.7 nM
- fold change [3, 8]: 1,7

SMILES: Cc1cc(C#N)cc(C)c1Oc1nc(Nc2ccc(C#N)cc2)nc(N)c1Br [Compound 2, 4-[[6-amino-5-bromo-2-[(4-cyanophenyl)amino]-4-pyrimidinyl]oxy]-3,5-dimethyl-Benzonitrile]
- EC50 ([1]; AVE 1, NL 4-3, primer set 3): 2.6 nM
- fold change ([1]; AVE 1, NL 4-3, primer set 3): 0,8
- EC50 ([1]; AVE 4, NL4-3, primer set 4): 2.8 nM
- fold change ([1]; AVE 4, NL4-3, primer set 4): 0,9
- EC50 ([2]; AVE 3, WT III B, primer set 3): 2.8 nM
- fold change ([2]; AVE 3, WT III B, primer set 3): 0,9
- EC50 ([2]; AVE 5, WT III B, primer set 4): 2.9 nM
- fold change ([2]; AVE 5, WT III B, primer set 4): 0,9
- EC50 [3, 8]: 3.9 nM
- fold change [3, 8]: 1,3
